Measurements published in PubChem BioAssay (NCI).
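Each compound was tested at five concentrations against cells in 96-well plates for 48 hours. GI50: concentration for 50% inhibition of growth. At the TGI there is no net growth.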

Columns and labels:
Experiment in all cases: growth of human tumour cells (NCI), 48 h
CAKI-1 renal = system: CAKI-1 renal
RXF 393 renal = system: RXF 393 renal
BT-549 breast = system: BT-549 breast
SF-295 CNS = system: SF-295 CNS
MOLT-4 leukemia = system: MOLT-4 leukemia
COLO 205 colon = system: COLO 205 colon
MALME-3M melanoma = system: MALME-3M melanoma
HCT-116 colon = system: HCT-116 colon
A498 renal = system: A498 renal
T-47D breast = system: T-47D breast
UACC-257 melanoma = system: UACC-257 melanoma
KM12 colon = system: KM12 colon
NCI-H522 lung = system: NCI-H522 lung
EKVX NSCLC = system: EKVX NSCLC
NCI/ADR-RES ovarian = system: NCI/ADR-RES ovarian
SK-MEL-2 melanoma = system: SK-MEL-2 melanoma
HOP-62 NSCLC = system: HOP-62 NSCLC
A549 NSCLC = system: A549 NSCLC
OVCAR-8 ovarian = system: OVCAR-8 ovarian
TK-10 renal = system: TK-10 renal
SN12C renal = system: SN12C renal
786-0 renal = system: 786-0 renal
HCC-2998 colon = system: HCC-2998 colon
RPMI-8226 leukemia = system: RPMI-8226 leukemia
OVCAR-3 ovarian = system: OVCAR-3 ovarian
NCI-H460 lung = system: NCI-H460 lung
UACC-62 melanoma = system: UACC-62 melanoma
U251 CNS = system: U251 CNS
IGROV1 ovarian = system: IGROV1 ovarian
SK-MEL-5 melanoma = system: SK-MEL-5 melanoma
SR leukemia = system: SR leukemia
SNB-19 CNS = system: SNB-19 CNS
SK-OV-3 ovarian = system: SK-OV-3 ovarian
SK-MEL-28 melanoma = system: SK-MEL-28 melanoma
SW-620 colon = system: SW-620 colon
PC-3 prostate = system: PC-3 prostate
HOP-92 NSCLC = system: HOP-92 NSCLC
K-562 leukemia = system: K-562 leukemia
M14 melanoma = system: M14 melanoma
SF-539 CNS = system: SF-539 CNS
HS 578T breast = system: HS 578T breast
NCI-H226 lung = system: NCI-H226 lung
MDA-MB-435 = system: MDA-MB-435
HL-60(TB) leukemia = system: HL-60(TB) leukemia
MDA-MB-231 breast = system: MDA-MB-231 breast
UO-31 renal = system: UO-31 renal
HT29 colon = system: HT29 colon
SNB-75 CNS = system: SNB-75 CNS
LOX IMVI melanoma = system: LOX IMVI melanoma
HCT-15 colon = system: HCT-15 colon
OVCAR-5 ovarian = system: OVCAR-5 ovarian
ACHN renal = system: ACHN renal
SF-268 CNS = system: SF-268 CNS
MCF7 breast = system: MCF7 breast
DU-145 prostate = system: DU-145 prostate
OVCAR-4 ovarian = system: OVCAR-4 ovarian

N/C(=N\c1nc2c(Cl)cc(Cl)cc2s1)C(Cl)(Cl)Cl
GI50 (CAKI-1 renal): 9.28 µM | TGI (CAKI-1 renal): > 100 µM | GI50 (RXF 393 renal): 12.5 µM | TGI (RXF 393 renal): > 100 µM | GI50 (BT-549 breast): 85.5 µM | TGI (BT-549 breast): > 100 µM | GI50 (SF-295 CNS): 11.5 µM | TGI (SF-295 CNS): > 100 µM | GI50 (MOLT-4 leukemia): 34.6 µM | TGI (MOLT-4 leukemia): > 100 µM | GI50 (COLO 205 colon): 3.46 µM | TGI (COLO 205 colon): 16.2 µM | GI50 (MALME-3M melanoma): > 100 µM | TGI (MALME-3M melanoma): > 100 µM | GI50 (HCT-116 colon): 28.1 µM | TGI (HCT-116 colon): > 100 µM | GI50 (A498 renal): 15.3 µM | TGI (A498 renal): 29.4 µM | GI50 (T-47D breast): 5.4 µM | TGI (T-47D breast): > 100 µM | GI50 (UACC-257 melanoma): 22.4 µM | TGI (UACC-257 melanoma): > 100 µM | GI50 (KM12 colon): 5.8 µM | TGI (KM12 colon): 71.8 µM | GI50 (NCI-H522 lung): > 100 µM | TGI (NCI-H522 lung): > 100 µM | GI50 (EKVX NSCLC): 6.01 µM | TGI (EKVX NSCLC): 26.6 µM | GI50 (NCI/ADR-RES ovarian): 88.6 µM | TGI (NCI/ADR-RES ovarian): > 100 µM | GI50 (SK-MEL-2 melanoma): > 100 µM | TGI (SK-MEL-2 melanoma): > 100 µM | GI50 (HOP-62 NSCLC): 5.62 µM | TGI (HOP-62 NSCLC): 24.6 µM | GI50 (A549 NSCLC): 5.65 µM | TGI (A549 NSCLC): 19.4 µM | GI50 (OVCAR-8 ovarian): > 100 µM | TGI (OVCAR-8 ovarian): > 100 µM | GI50 (TK-10 renal): 31.7 µM | TGI (TK-10 renal): > 100 µM | GI50 (SN12C renal): > 100 µM | TGI (SN12C renal): > 100 µM | GI50 (786-0 renal): > 100 µM | TGI (786-0 renal): > 100 µM | GI50 (HCC-2998 colon): 6.11 µM | TGI (HCC-2998 colon): 23.6 µM | GI50 (RPMI-8226 leukemia): 17 µM | TGI (RPMI-8226 leukemia): > 100 µM | GI50 (OVCAR-3 ovarian): 5.57 µM | TGI (OVCAR-3 ovarian): 35.4 µM | GI50 (NCI-H460 lung): 3.63 µM | TGI (NCI-H460 lung): 18.2 µM | GI50 (UACC-62 melanoma): 26.7 µM | TGI (UACC-62 melanoma): > 100 µM | GI50 (U251 CNS): 6.63 µM | TGI (U251 CNS): 96.6 µM | GI50 (IGROV1 ovarian): 55.8 µM | TGI (IGROV1 ovarian): > 100 µM | GI50 (SK-MEL-5 melanoma): > 100 µM | TGI (SK-MEL-5 melanoma): > 100 µM | GI50 (SR leukemia): 77.4 µM | TGI (SR leukemia): > 100 µM | GI50 (SNB-19 CNS): 19.4 µM | TGI (SNB-19 CNS): > 100 µM | GI50 (SK-OV-3 ovarian): 35.4 µM | TGI (SK-OV-3 ovarian): > 100 µM | GI50 (SK-MEL-28 melanoma): 29.2 µM | TGI (SK-MEL-28 melanoma): > 100 µM | GI50 (SW-620 colon): 48 µM | TGI (SW-620 colon): > 100 µM | GI50 (PC-3 prostate): 12.9 µM | TGI (PC-3 prostate): 75.8 µM | GI50 (HOP-92 NSCLC): 2890 nM | TGI (HOP-92 NSCLC): 25.8 µM | GI50 (K-562 leukemia): 55.3 µM | TGI (K-562 leukemia): > 100 µM | GI50 (M14 melanoma): > 100 µM | TGI (M14 melanoma): > 100 µM | GI50 (SF-539 CNS): 17.2 µM | TGI (SF-539 CNS): > 100 µM | GI50 (HS 578T breast): 17.9 µM | TGI (HS 578T breast): > 100 µM | GI50 (NCI-H226 lung): > 100 µM | TGI (NCI-H226 lung): > 100 µM | GI50 (MDA-MB-435): 61.3 µM | TGI (MDA-MB-435): > 100 µM | GI50 (HL-60(TB) leukemia): 4.91 µM | TGI (HL-60(TB) leukemia): > 100 µM | GI50 (MDA-MB-231 breast): 38.3 µM | TGI (MDA-MB-231 breast): > 100 µM | GI50 (UO-31 renal): 25.2 µM | TGI (UO-31 renal): > 100 µM | GI50 (HT29 colon): 5.21 µM | TGI (HT29 colon): 29.7 µM | GI50 (SNB-75 CNS): > 100 µM | TGI (SNB-75 CNS): > 100 µM | GI50 (LOX IMVI melanoma): 3.3 µM | TGI (LOX IMVI melanoma): 26.3 µM | GI50 (HCT-15 colon): 53.2 µM | TGI (HCT-15 colon): > 100 µM | GI50 (OVCAR-5 ovarian): 45.2 µM | TGI (OVCAR-5 ovarian): > 100 µM | GI50 (ACHN renal): 3.59 µM | TGI (ACHN renal): 22.2 µM | GI50 (SF-268 CNS): 51.5 µM | TGI (SF-268 CNS): > 100 µM | GI50 (MCF7 breast): 3.02 µM | TGI (MCF7 breast): > 100 µM | GI50 (DU-145 prostate): 3.11 µM | TGI (DU-145 prostate): 15.8 µM | GI50 (OVCAR-4 ovarian): 41 µM | TGI (OVCAR-4 ovarian): > 100 µM
